Values quoted from earlier work, collected in patent US11426350B1, “Reducing the environmental impact of farming using biochar” (Carbon Technology Holdings, LLC, priority 2014, dated 2022).

System: E. coli O157:H7

## Lactobacillus rhamnosus GG
  E. coli O157:H7-induced lesions in Caco-2 cells: prevent
